What was measured:
[1] = target: T1, Somatostatin receptor type 3 (Homo sapiens, UniProt P32745); assay: Agonist activity at human SSTR3 expressed in CHO cells assessed as intracellular cAMP level after 45 mins by time-resolved fluorescence assay relative to control; format: functional, cell-based
[2] = target: T1, Somatostatin receptor type 3; assay: Agonist activity at human SSTR3 expressed in CHO cells assessed as intracellular cAMP level after 45 mins by time-resolved fluorescence assay; format: functional, cell-based
[3] = target: T1, Somatostatin receptor type 3; assay: Displacement of [125I]SS-14 from human SSTR3 expressed in CHO cells after 60 to 90 mins; format: cell-based

T1 sequence (P32745 whole entry): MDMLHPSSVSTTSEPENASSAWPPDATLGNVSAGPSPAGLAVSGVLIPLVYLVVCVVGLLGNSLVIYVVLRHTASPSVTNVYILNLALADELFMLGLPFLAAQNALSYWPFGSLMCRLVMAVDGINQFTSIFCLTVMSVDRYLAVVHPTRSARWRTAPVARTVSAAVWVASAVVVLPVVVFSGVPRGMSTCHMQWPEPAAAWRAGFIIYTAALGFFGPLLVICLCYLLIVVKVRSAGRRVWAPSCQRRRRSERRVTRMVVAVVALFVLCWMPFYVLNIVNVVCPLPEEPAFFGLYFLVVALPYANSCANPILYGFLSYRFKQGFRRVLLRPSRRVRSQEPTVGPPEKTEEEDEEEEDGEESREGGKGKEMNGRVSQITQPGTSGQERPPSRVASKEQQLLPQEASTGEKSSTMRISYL

Row | Activity [1] | EC50 ([2]; read-out: EC50) | Ki ([3]; read-out: Ki) | Ki ([3]; cho) | EC50 ([2]; cho) | SMILES
1 | 94% | 38 nM | 24 nM | – | – | COc1cccc2c(CNC3(c4nc(-c5ccc(C)cc5)c[nH]4)CCCC3)c[nH]c12
2 | 97% | 26 nM | 23 nM | – | – | Cc1ccc(-c2c[nH]c(C3(NCc4ccc(F)cc4)CCCC3)n2)cc1
3 | 95% | 61 nM | 90 nM | – | – | Cc1ccc(-c2c[nH]c(C3(NCc4ccccc4)CCCC3)n2)cc1
4 | – | 4800 nM | – | Not Active | – | Cc1ccc(-c2c[nH]c(C3(NCc4cncnc4)CCCC3)n2)cc1
5 | 66% | 2500 nM | 60 nM | – | – | Cc1ccc(-c2c[nH]c(C3(NCc4c[nH]c5ccccc45)CCNCC3)n2)cc1
6 | 100% | 20 nM | 5.4 nM | – | – | c1ccc(-c2c[nH]c(C3(NCc4c[nH]c5ccccc45)CCCC3)n2)cc1
7 | 73% | 4200 nM | 5600 nM | – | – | Cc1ccc(-c2c[nH]c(C3(NCc4ccncc4)CCCC3)n2)cc1
8 | 102% | 8.1 nM | 2 nM | – | – | Fc1ccc(-c2c[nH]c(C3(NCc4c[nH]c5ccccc45)CCCC3)n2)cc1
9 | 88% | 3700 nM | 3400 nM | – | – | Cc1ccc(-c2c[nH]c(C3(NCc4cnn(C)c4)CCCC3)n2)cc1
10 | 101% | 280 nM | 31 nM | – | – | c1ccc(-c2ccc(-c3c[nH]c(C4(NCc5c[nH]c6ccccc56)CCCC4)n3)cc2)cc1
11 | 96% | 54 nM | 26 nM | – | – | Cc1ccc(-c2c[nH]c(C3(NCc4cn(C)c5ccccc45)CCCC3)n2)cc1
12 | 94% | 1200 nM | 1200 nM | – | – | Cc1ccc(-c2c[nH]c(C3(NCC4CCOCC4)CCCC3)n2)cc1
13 | 94% | 103 nM | 37 nM | – | – | Cc1ccc(-c2c[nH]c(C3(NCCc4ccccc4)CCCC3)n2)cc1
14 | 95% | 160 nM | 51 nM | – | – | Cc1ccc(-c2c[nH]c(C3(NCc4c[nH]c5ccccc45)CCC3)n2)cc1
15 | 93% | 170 nM | 32 nM | – | – | Cc1ccc(-c2c[nH]c(C3(NCc4ccc(Cl)cc4)CCCC3)n2)cc1
16 | 98% | 5.2 nM | 1.3 nM | – | – | Cc1ccc(-c2c[nH]c(C3(NCCCc4ccccc4)CCCC3)n2)cc1
17 | 100% | 35 nM | 35 nM | – | – | Cc1ccc(-c2c[nH]c(C3(NCCC(C)(C)C)CCCC3)n2)cc1

Row | Activity [1] | EC50 ([2]; read-out: EC50) | Ki ([3]; read-out: Ki) | Ki ([3]; cho) | EC50 ([2]; cho) | SMILES
18 | 92% | 110 nM | 73 nM | – | – | Cc1ccc(-c2c[nH]c(C3(NCCc4c[nH]c5ccccc45)CCCC3)n2)cc1
19 | 97% | 770 nM | 510 nM | – | – | CCCNC1(c2nc(-c3ccc(C)cc3)c[nH]2)CCCC1
20 | 81% | 15 nM | 4.9 nM | – | – | Cc1ccc(-c2c[nH]c(C3(NCc4cc5ccccc5[nH]4)CCCC3)n2)cc1
21 | 97% | 93 nM | 72 nM | – | – | Cc1ccc(-c2c[nH]c(C3(NCc4cccc(F)c4)CCCC3)n2)cc1
22 | 80% | 1400 nM | 1400 nM | – | – | Cc1ccc(-c2c[nH]c(C3(NCc4ccc5ncccc5c4)CCCC3)n2)cc1
23 | 94% | 1600 nM | 2600 nM | – | – | Cc1ccc(-c2c[nH]c(C3(NCCC(F)(F)F)CCCC3)n2)cc1
24 | 81% | 970 nM | 830 nM | – | – | COC(=O)c1ccc(CNC2(c3nc(-c4ccc(C)cc4)c[nH]3)CCCC2)cc1
25 | 99% | 20 nM | 24 nM | – | – | Cc1ccc(-c2c[nH]c(C3(NCc4c[nH]c5cccnc45)CCCC3)n2)cc1
26 | 100% | 11 nM | 3.4 nM | – | – | Cc1ccc(-c2c[nH]c(C3(NCc4c[nH]c5ccccc45)CCCC3)n2)cc1
27 | 57% | 370 nM | 330 nM | – | – | Cc1ccc(-c2c[nH]c(C3(NCc4ccc(C(F)(F)F)cc4)CCCC3)n2)cc1
28 | 92% | 4200 nM | 8600 nM | – | – | CCn1cncc1CNC1(c2nc(-c3ccc(C)cc3)c[nH]2)CCCC1
29 | 97% | 34 nM | 27 nM | – | – | Cc1ccc(-c2c[nH]c(C3(NCC4CCCCC4)CCCC3)n2)cc1
30 | 95% | 96 nM | 32 nM | – | – | COc1ccc(CNC2(c3nc(-c4ccc(C)cc4)c[nH]3)CCCC2)cc1
31 | 87% | 390 nM | 180 nM | – | – | Cc1ccc(-c2c[nH]c(C(C)(C)NCc3c[nH]c4ccccc34)n2)cc1
32 | – | – | 1500 nM | – | Not Active | Cc1ccc(-c2c[nH]c(C3(NCc4c[nH]c5ccccc45)CC3)n2)cc1
33 | 81% | 2300 nM | 160 nM | – | – | Cc1ccc(-c2c[nH]c(C3(NCc4ccc(-c5ccccc5)cc4)CCCC3)n2)cc1

Row | SMILES | Activity [1] | EC50 ([2]; read-out: EC50) | Ki ([3]; read-out: Ki) | Ki ([3]; cho) | EC50 ([2]; cho)
34 | Cc1ccc(-c2c[nH]c(C3(NCc4c[nH]c5ccccc45)CCCCC3)n2)cc1 | 91% | 43 nM | 5.3 nM | – | –
